Assay results from ChEMBL document CHEMBL1201862, “PubChem BioAssay data set” (2004).
Active and inactive are the calls of the source.

Experiments:
[1] = A Cell Based Secondary Assay To Explore Cytotoxicity of Compounds that Sensitize Mycobacterium Tuberculosis to Beta-Lactam Antibiotics.; assay type: functional
Aspartyl aminopeptidase = molecular target: T1, Aspartyl aminopeptidase (Plasmodium falciparum 3D7, UniProt Q8I2J3); assay: Counterscreen for inhibitors of M1 and M17 aminopeptidases: QFRET-based biochemical high throughput dose response assay for inhibitors of the Plasmodium falciparum M18 Aspartyl Aminopeptidase (PFM18AAP). [Related PubChem assays: 1619 (Screening assay (M17LAP inhibitors).), 1445 (Screening assay (M1AAP inhibitors).)]
T1 sequence (Q8I2J3 whole entry): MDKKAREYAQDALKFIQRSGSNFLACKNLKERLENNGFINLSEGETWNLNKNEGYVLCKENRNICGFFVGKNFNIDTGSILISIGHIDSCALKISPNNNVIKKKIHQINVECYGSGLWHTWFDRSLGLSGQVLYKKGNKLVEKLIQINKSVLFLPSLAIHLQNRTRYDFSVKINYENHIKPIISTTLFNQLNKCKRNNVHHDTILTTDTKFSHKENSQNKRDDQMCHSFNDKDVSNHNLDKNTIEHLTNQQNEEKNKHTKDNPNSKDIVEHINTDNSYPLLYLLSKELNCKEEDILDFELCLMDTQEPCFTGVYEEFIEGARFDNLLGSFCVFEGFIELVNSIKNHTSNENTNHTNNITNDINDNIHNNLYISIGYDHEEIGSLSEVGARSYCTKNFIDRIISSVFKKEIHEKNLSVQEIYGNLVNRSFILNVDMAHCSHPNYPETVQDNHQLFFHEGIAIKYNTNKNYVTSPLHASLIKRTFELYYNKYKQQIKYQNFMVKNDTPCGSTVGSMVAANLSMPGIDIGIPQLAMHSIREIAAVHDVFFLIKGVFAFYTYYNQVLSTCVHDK

Aminopeptidase N = molecular target: T2, Aminopeptidase N (Plasmodium falciparum FcB1/Columbia, UniProt O96935); assay: P. falciparum M1AAP inhibitors, biochemical, fluorogenic H-Leu-NHMec substrate, 1536-well (AID 1445); set-up: species or system Plasmodium falciparum 3D7, 3D7
T2 sequence (O96935 whole entry): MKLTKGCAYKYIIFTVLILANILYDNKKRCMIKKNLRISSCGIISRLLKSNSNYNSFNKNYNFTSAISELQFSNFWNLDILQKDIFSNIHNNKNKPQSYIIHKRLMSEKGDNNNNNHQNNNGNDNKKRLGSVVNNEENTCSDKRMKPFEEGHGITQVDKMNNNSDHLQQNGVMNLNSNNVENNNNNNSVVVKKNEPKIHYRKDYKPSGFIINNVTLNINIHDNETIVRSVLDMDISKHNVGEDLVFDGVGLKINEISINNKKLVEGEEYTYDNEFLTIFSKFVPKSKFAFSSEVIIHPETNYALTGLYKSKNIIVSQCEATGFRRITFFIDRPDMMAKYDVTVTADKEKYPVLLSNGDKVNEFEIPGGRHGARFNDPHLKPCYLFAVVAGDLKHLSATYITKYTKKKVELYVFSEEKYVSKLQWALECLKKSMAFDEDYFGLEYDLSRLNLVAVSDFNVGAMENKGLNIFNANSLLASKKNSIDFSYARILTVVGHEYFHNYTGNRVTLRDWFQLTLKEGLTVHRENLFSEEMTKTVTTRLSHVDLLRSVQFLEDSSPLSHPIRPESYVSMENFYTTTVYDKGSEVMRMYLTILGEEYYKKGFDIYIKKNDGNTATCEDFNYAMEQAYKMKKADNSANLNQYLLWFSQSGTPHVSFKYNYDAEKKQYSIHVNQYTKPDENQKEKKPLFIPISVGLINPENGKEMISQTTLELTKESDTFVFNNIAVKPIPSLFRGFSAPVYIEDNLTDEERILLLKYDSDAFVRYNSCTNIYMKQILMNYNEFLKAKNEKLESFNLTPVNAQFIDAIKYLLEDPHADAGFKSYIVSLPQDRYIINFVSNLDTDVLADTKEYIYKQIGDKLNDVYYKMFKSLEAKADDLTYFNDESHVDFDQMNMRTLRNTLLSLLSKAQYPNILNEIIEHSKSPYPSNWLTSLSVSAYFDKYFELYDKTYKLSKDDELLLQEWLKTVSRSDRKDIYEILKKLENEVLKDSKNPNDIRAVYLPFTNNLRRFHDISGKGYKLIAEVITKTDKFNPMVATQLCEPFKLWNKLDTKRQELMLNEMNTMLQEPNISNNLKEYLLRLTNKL

Procathepsin L = Procathepsin L (Homo sapiens, UniProt P07711); assay: cathepsin L inhibitors, dose response, counter-screen for M1/M17 aminopeptidase inhibitor project, biochemical, QFRET, 1536-well (AID 2214)
Chain of Procathepsin L (P07711 whole entry): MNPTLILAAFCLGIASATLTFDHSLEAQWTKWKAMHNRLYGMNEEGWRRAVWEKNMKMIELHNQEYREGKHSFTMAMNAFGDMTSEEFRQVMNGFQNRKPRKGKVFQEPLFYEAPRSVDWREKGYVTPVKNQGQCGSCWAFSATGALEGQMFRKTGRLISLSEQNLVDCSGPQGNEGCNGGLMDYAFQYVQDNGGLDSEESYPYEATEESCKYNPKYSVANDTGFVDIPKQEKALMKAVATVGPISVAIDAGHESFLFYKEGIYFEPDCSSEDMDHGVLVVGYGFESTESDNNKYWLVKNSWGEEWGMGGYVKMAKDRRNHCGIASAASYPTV

[2] = HEp-2 cell cytotoxicity, dose response, cytotoxicity control for RSV inhibitor project, HTS (AID 2410); assay type: functional; details: human respiratory syncytial virus
[3] = molecular target: T3, High affinity choline transporter 1 (Homo sapiens, UniProt Q9GZV3); assay: CHT inhibitors, dose response, cell-based, 5-point CRC, membrane potential dye (AID 504840); assay type: functional
T3 sequence (Q9GZV3 whole entry): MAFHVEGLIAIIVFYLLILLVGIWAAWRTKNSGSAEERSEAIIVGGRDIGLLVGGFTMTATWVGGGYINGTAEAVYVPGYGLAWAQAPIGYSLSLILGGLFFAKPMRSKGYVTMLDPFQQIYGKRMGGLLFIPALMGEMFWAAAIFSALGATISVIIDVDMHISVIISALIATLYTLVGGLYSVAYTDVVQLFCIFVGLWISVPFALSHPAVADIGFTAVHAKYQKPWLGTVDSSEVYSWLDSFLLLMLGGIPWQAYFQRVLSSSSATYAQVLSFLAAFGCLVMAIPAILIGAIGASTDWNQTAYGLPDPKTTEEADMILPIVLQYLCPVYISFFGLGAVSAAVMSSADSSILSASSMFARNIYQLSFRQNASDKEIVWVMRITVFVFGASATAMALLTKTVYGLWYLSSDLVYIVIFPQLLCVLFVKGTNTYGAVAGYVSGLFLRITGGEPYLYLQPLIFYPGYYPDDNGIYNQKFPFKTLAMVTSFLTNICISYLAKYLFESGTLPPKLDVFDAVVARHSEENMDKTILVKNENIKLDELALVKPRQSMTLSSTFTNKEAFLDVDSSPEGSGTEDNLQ

Protein RecA = molecular target: T4, Protein RecA (Mycobacterium tuberculosis, UniProt P9WHJ3); assay: Fluorescence Cell-Free Homogeneous Dose Retest to Identify Inhibitors of RecA-Intein Splicing Activity. [Related pubchem assays (depositor defined):AID2097, AID2223, AID489010, AID492950]; assay type: functional
T4 sequence (P9WHJ3 whole entry): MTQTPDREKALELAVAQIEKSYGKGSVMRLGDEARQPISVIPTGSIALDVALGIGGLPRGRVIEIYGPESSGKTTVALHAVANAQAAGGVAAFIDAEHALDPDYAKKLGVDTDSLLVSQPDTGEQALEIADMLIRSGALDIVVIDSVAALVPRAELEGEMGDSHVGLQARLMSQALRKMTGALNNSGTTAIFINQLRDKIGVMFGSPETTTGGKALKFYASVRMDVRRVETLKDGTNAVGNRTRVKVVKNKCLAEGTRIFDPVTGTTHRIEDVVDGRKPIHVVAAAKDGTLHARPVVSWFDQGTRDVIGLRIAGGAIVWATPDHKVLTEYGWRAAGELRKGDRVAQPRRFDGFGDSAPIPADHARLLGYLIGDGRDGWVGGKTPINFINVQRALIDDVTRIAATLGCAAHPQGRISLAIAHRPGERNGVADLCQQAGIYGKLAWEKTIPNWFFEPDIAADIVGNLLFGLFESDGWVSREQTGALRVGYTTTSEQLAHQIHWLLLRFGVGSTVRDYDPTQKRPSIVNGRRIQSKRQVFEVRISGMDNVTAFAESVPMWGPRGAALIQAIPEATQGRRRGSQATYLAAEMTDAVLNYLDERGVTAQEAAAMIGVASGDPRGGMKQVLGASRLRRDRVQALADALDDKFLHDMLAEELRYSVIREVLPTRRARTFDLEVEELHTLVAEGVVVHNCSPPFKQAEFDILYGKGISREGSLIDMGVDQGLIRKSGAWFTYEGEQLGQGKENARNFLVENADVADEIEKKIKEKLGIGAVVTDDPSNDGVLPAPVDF

Vero [4] = assay: cells; assay type: functional; details: Chlorocebus sabaeus
[5] = molecular target: T5, Replicative DNA helicase DnaB (Mycobacterium tuberculosis, UniProt P9WMR3); assay: DnaB intein splicing inhibitors, dose response, biochemical, cell-free fluorescence (AID 449749); assay type: functional
T5 sequence (P9WMR3 whole entry): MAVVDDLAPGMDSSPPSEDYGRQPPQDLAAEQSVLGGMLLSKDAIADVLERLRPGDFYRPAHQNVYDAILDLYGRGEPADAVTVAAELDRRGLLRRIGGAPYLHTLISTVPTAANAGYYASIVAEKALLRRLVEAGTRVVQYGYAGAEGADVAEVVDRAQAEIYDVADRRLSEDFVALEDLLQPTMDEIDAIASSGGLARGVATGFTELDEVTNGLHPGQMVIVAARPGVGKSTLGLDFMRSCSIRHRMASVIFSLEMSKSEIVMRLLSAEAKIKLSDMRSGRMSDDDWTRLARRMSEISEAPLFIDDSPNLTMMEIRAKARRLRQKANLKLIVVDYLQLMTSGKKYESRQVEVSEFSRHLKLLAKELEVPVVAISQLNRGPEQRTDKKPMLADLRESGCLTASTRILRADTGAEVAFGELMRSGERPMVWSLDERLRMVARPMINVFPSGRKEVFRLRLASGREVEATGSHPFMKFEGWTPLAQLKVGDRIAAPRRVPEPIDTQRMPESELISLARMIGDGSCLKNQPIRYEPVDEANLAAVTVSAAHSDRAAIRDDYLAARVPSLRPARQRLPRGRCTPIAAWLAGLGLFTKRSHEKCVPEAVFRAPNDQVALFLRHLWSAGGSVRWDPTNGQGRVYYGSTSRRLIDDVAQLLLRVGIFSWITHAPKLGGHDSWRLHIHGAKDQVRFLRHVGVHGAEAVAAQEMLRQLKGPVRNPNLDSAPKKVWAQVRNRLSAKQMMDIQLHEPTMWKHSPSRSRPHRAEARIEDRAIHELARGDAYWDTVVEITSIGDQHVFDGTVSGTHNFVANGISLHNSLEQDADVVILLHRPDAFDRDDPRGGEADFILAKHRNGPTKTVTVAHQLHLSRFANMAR

[6] = Shn3 3'UTR reporter inhibitors, dose response, cell-based, Clone20 osteoblasts, firefly luciferase, cherry-picked (AID 624132); assay type: functional;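 note: firefly luciferase luminescence from reporter carrying the Shn3 3'UTR in osteoblasts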
[7] = HepG2 cell cytotoxicity, dose response, cytotoxicity control for Shn3 inhibitor project, CellTiter-Glo, cherry-picked (AID 624134); assay type: functional, cell-based
Vero [8] = assay: host cell cytotoxicity of antiviral hits, dose response, cytotoxicity control for West Nile virus antiviral project, secondary assay (AID 1650); assay type: functional; details: Chlorocebus sabaeus
[9] = control 3'UTR Renilla luciferase suppression, dose response, counter-screen for Shn3 inhibitor project, cell-based, Clone20-Shn3RL, cherry-picked (AID 624133); assay type: functional
Leucine aminopeptidase = molecular target: T6, Leucine aminopeptidase (Plasmodium falciparum 3D7, UniProt Q8IL11); assay: P. falciparum M17LAP inhibitors, primary screen, biochemical, fluorogenic H-Leu-NHMec substrate, 1536-well (AID 1619); assay type: functional
T6 sequence (Q8IL11 whole entry): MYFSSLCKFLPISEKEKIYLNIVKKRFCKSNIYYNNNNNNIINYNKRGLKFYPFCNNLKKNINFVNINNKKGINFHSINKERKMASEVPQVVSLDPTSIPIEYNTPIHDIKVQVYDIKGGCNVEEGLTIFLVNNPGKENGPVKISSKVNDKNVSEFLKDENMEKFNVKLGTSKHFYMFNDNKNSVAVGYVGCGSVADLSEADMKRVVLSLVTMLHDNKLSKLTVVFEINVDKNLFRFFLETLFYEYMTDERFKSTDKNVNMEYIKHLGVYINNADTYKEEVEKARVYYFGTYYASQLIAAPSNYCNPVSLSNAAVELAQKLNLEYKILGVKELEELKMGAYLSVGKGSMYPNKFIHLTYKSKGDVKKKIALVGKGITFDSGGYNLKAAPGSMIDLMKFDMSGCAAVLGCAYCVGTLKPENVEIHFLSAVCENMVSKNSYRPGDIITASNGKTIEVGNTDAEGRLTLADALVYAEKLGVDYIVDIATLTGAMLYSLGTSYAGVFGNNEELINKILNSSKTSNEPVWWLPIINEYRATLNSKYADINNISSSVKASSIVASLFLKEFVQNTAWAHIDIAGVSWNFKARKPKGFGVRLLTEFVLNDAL

[10] = molecular target: Peroxisome proliferator-activated receptor gamma/Nuclear receptor coactivator 3 (Homo sapiens, UniProt P37231); assay type: functional;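 note: agonist potency for raising coactivator recruitment to the receptor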
[11] = molecular target: Peroxisome proliferator-activated receptor gamma/Nuclear receptor coactivator 1 (Homo sapiens, UniProt P37231); assay type: functional;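 note: agonist potency as compounds enhance coactivator SRC-1 recruitment to PPARgamma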
Chain of Peroxisome proliferator-activated receptor gamma/Nuclear receptor coactivator 1 (P37231 whole entry): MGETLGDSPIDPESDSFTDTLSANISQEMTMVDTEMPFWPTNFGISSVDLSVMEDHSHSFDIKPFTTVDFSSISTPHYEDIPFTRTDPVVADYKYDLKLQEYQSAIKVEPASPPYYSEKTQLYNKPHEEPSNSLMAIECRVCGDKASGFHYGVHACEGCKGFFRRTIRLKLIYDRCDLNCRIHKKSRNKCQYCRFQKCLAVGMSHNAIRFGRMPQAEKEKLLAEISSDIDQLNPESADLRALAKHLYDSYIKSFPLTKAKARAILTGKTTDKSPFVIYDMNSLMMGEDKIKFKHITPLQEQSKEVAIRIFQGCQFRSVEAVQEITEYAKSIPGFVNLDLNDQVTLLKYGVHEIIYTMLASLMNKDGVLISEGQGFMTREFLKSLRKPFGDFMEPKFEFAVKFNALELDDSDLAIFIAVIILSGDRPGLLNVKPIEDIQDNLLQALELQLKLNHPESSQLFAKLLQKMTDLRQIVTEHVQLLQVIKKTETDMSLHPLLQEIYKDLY
Chain of Peroxisome proliferator-activated receptor gamma/Nuclear receptor coactivator 1 (Q15788 whole entry, further chain): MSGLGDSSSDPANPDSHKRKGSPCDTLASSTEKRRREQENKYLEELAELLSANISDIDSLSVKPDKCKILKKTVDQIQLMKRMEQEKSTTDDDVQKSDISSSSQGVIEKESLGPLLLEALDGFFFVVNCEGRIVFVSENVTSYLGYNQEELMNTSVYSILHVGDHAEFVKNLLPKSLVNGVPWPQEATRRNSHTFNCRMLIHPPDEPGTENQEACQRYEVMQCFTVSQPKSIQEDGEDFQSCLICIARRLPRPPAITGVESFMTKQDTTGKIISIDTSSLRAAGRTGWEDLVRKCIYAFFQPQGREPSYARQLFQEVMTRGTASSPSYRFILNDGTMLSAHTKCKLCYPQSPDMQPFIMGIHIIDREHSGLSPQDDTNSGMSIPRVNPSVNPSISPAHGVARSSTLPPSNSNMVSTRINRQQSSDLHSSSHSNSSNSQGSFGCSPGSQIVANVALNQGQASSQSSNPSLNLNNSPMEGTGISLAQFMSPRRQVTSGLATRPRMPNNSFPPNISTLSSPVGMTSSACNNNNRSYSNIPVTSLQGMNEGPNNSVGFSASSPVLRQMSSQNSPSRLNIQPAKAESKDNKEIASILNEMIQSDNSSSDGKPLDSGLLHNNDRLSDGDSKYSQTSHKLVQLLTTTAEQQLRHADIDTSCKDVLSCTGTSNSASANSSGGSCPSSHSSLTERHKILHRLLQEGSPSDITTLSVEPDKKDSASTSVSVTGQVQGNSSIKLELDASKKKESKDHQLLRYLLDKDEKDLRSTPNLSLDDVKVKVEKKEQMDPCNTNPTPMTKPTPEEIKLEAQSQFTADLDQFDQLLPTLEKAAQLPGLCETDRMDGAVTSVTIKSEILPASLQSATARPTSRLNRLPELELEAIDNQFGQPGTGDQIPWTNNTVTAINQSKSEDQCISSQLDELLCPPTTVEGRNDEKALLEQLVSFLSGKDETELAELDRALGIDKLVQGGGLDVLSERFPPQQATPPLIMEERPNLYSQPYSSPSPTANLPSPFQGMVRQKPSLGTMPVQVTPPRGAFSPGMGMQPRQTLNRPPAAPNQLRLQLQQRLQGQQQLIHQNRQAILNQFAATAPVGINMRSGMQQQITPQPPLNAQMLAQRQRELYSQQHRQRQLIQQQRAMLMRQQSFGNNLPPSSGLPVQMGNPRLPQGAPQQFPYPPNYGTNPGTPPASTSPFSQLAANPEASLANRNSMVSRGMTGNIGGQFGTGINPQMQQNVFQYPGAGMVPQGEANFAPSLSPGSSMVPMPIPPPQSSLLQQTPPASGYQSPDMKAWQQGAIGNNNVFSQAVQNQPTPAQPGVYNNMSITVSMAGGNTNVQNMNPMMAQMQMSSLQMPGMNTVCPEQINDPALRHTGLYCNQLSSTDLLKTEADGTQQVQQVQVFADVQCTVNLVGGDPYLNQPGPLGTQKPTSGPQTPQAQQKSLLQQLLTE

[12] = molecular target: Peroxisome proliferator-activated receptor gamma/Nuclear receptor coactivator 2 (Homo sapiens, UniProt P37231); assay type: functional;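 note: agonist potency for raising coactivator recruitment to the receptor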
Chain of Peroxisome proliferator-activated receptor gamma/Nuclear receptor coactivator 2 (P37231 whole entry): as the sequence (P37231 whole entry) above
Chain of Peroxisome proliferator-activated receptor gamma/Nuclear receptor coactivator 2 (Q15596 whole entry, further chain): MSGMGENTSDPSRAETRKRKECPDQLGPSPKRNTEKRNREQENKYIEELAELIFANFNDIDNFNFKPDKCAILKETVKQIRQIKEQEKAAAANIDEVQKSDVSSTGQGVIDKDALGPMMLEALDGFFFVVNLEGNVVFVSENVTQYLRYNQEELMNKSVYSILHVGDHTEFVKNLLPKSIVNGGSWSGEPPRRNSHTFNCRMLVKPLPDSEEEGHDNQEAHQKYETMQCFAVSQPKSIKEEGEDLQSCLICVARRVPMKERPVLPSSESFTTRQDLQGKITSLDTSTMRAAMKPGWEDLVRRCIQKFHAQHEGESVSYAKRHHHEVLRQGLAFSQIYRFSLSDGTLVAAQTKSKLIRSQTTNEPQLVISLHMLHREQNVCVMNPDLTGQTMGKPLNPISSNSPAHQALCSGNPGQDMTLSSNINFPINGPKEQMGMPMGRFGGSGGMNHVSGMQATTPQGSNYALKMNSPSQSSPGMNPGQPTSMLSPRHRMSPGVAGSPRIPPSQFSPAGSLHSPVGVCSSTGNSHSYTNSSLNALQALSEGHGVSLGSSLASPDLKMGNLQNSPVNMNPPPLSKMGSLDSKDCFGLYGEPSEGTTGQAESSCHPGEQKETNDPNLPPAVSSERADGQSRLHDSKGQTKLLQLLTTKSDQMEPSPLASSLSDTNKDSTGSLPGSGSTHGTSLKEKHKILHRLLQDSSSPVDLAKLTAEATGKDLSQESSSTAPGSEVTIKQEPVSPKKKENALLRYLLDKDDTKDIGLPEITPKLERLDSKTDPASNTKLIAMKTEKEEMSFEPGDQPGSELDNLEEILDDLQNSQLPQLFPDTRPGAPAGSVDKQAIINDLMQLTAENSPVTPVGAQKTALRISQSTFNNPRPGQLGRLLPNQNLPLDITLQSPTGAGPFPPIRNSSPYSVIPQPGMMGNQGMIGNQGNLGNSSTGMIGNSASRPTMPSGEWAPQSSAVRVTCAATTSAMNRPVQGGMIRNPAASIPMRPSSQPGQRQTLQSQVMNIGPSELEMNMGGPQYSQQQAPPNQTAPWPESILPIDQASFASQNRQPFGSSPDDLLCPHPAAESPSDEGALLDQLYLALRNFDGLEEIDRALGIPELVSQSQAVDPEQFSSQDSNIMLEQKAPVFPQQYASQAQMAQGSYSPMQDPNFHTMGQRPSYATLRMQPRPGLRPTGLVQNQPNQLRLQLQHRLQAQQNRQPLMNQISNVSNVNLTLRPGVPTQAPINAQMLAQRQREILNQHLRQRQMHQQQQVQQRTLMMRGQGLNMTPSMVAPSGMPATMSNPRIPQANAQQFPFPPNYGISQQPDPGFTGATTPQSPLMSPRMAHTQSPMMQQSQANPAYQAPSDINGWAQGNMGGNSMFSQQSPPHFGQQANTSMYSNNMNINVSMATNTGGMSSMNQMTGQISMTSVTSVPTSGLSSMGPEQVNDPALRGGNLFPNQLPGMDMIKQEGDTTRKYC

Genome polyprotein = Genome polyprotein (dengue virus type 2, UniProt P29990); assay: Dengue-2 NS5 methyltransferase inhibitors, primary screen, biochemical, confirmation dose response (AID 588689); assay type: functional

Cc1cc(F)ccc1NCC(=O)Nc1ccc(Br)cc1C
CC50 [1]: > 40 µM (active)

COc1ccccc1-c1nc2ccccc2c(=O)n1NC(=O)c1cccs1
IC50 (Aspartyl aminopeptidase): > 73.5 µM (not active)
IC50 (Aminopeptidase N): 15.8 µM (active)
IC50 (Procathepsin L): > 59.6 µM (not active)

Cc1cc(C)c(-n2c(C)cc(/C=C3/NC(=O)NC3=O)c2C)c(C)c1
CC50 [2]: 11.2 µM (active)
IC50 (cells): 2.83 µM (active)

COCCN(C(=O)CSc1nnc(-c2ccc(C)c(C)c2)o1)c1c(N)n(CC(C)C)c(=O)[nH]c1=O
IC50 [3]: 14.8 µM (active)
IC50 (cells): 13.3 µM (active)

CCN(CC)CCNC(=O)CSc1c2c(nc3cc(Cl)ccc13)CCCC2
EC50 (Protein RecA): 11.8 µM (active)
CC50 (Vero [4]): > 25 µM (active)
AC50 [5]: 241 µM (active)
AC50 [6]: 14.9 µM (active)
AC50 [7]: > 70 µM (inactive)
CC50 (Vero [8]): 18.8 µM (active)
AC50 [9]: 25.5 µM (active)

CCc1ccc(NC(=O)C2CC=CCC2C(=O)O)cc1 (centres undefined)
IC50 (Aspartyl aminopeptidase): > 73.5 µM (not active)
IC50 (Leucine aminopeptidase): 3.48 µM (active)
IC50 (Procathepsin L): > 59.6 µM (not active)

Cc1sc2nc3c(SC(C)C(=O)O)cc(C(=O)c4ccccc4O)cn3c(=O)c2c1C (centres undefined)
EC50 [10]: 25.9 µM (not active)
CC50 [2]: 42.7 µM (active)
EC50 [11]: 14.7 µM (not active)
EC50 [12]: 25.1 µM (not active)
IC50 (Aminopeptidase N): 57.8 µM (active)
IC50 (cells): 41.5 µM (active)

CCOC(=O)c1c(NC(=O)C2C3C=CC(C3)C2C(=O)O)sc2c1CCC(CC)C2 (centres undefined)
IC50 [3]: 1.91 µM (active)
IC50 (Aspartyl aminopeptidase): > 73.5 µM (not active)
IC50 (Leucine aminopeptidase): 7.67 µM (active)
IC50 (Genome polyprotein): 42.4 µM (active)
IC50 (Procathepsin L): > 59.6 µM (not active)
